This assay concerns the target T1, MAGL (recombinant wild-type) (Homo sapiens, UniProt Q99685).
T1 sequence (Q99685 1-303): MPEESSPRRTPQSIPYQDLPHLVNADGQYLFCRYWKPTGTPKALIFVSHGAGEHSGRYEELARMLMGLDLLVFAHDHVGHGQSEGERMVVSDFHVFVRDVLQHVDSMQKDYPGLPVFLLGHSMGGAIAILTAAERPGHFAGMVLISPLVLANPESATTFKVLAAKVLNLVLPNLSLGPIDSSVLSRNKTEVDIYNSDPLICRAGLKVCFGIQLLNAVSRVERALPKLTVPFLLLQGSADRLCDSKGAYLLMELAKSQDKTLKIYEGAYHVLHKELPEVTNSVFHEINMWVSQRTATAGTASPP
Description: MAGL inhibitory activity, hydrolysis of 4-nitrophenylacetate to 4-nitrophenol (absorbance at 405 nm). It counts as biochemical. The note with it: 1 nM MAGL, 300 μM 4-nitrophenylacetate, 15 min preincubation at RT, slope of absorbance at 405 nm between 5 and 80 min. The protocol: Compounds were profiled for MAGL inhibitory activity by measuring the enzymatic activity of MAGL by following the hydrolysis of 4-nitorphenylacetate resulting in 4-nitrophenol, which absorbs at 405-412 nm (G. G. Muccioli, G. Labar, D. M. Lambert, Chem. Bio. Chem. 2008, 9, 2704-2710).
The assay was carried out in 384 well assay plates (black with clear bottom, non-binding surface treated, Corning Ref. 3655) in a total volume of 40 μL. Compound dilutions were made in 100% DMSO (VWR Chemicals 23500.297) in a polypropylene plate in 3-fold dilution steps to give a final concentration range in the assay from 25 μM to 1.7 nM. 1 μL compound dilutions (100% DMSO) were added to 19 μL MAGL (recombinant wild-type) in assay buffer (50 mM TRIS (GIBCO, 15567-027), 1 mM EDTA (Fluka, 03690-100 ml)). The plate was shaked for 1 min at 2000 rpm (Variomag Teleshake) and then incubated for 15 min at RT. To start the reaction, 20 μL 4-Nitrophenlyacetate (Sigma N-8130) in assay buffer with 6% EtOH was added. The final concentrations in the assay were 1 nM MAGL and 300 μM 4-Nitrophenylacetate. After shaking (1 m, 2000 rpm) and 5 min incubation at RT, the absorbance at 405 nm was measured for a first time (Molecular Devices, SpectraMax Paradigm). A second measurement was then done after incubation for 80 min at RT. From the two measurements, the slope was calculated by subtracting the first from the second measurement.

The record followed here is patent US20230183224A1, “BEZOXAZINE DERIVATIVES USEFUL AS MONOACYLGLYCEROL LIPASE INHIBITORS” (Hoffmann-La Roche Inc., priority 2017, published 2023).

Take `O=C1COc2ccc(C(=O)N3CCC(Cc4ccccc4)CC3)cc2N1` [Example 1, 6-(4-benzylpiperidine-1-carbonyl)-4H-1,4-benzoxazin-3-one]: the IC50 is 101 nM. The value for `O=C1COc2ccc(C(=O)N3CCN(Cc4ccccc4)CC3)cc2N1` [Example 2, 6-(4-benzylpiperazine-1-carbonyl)-4H-1,4-benzoxazin-3-one] was 3720 nM. Consider `O=C1COc2ccc(C(=O)N3CCC(Cc4ccc(F)cc4)CC3)cc2N1` [Example 3, 6-[4-[(4-fluorophenyl)methyl]piperidine-1-carbonyl]-4H-1,4-benzoxazin-3-one], for which the concentration for half-maximal inhibition (IC50) came out at 88 nM. For `O=C1COc2ccc(C(=O)N3CCC(Cc4ccc(C(F)(F)F)cc4)CC3)cc2N1` [Example 4, 6-[4-[[4-(trifluoromethyl)phenyl]methyl]piperidine-1-carbonyl]-4H-1,4-benzoxazin-3-one], the half-maximal inhibitory concentration (IC50) is 34.7 nM.

`COc1ccc(CC2CCN(C(=O)c3ccc4c(c3)NC(=O)CO4)CC2)cc1` [Example 5, 6-[4-[(4-methoxyphenyl)methyl]piperidine-1-carbonyl]-4H-1,4-benzoxazin-3-one]: the concentration for half-maximal inhibition (IC50) stood at 170 nM. Next, `COc1cccc(CC2CCN(C(=O)c3ccc4c(c3)NC(=O)CO4)CC2)c1` [Example 6, 6-[4-[(3-methoxyphenyl)methyl]piperidine-1-carbonyl]-4H-1,4-benzoxazin-3-one]: 52 nM; `O=C1COc2ccc(C(=O)N3CCC(O)(Cc4ccccc4)CC3)cc2N1` [Example 7, 6-(4-benzyl-4-hydroxypiperidine-1-carbonyl)-4H-1,4-benzoxazin-3-one]: 4350 nM; `O=C1COc2ccc(C(=O)N3CCC(Cc4cccc(F)c4)CC3)cc2N1` [Example 8, 6-[4-[(3-fluorophenyl)methyl]piperidine-1-carbonyl]-4H-1,4-benzoxazin-3-one]: 47 nM. With `O=C1COc2ccc(C(=O)N3CCC(Cc4cc(F)cc(F)c4)CC3)cc2N1` [Example 9, 6-[4-[(3,5-difluorophenyl)methyl]piperidine-1-carbonyl]-4H-1,4-benzoxazin-3-one], the half-maximal inhibitory concentration (IC50) came out at 58 nM. The value for `O=C1COc2ccc(C(=O)N3CCC(S(=O)(=O)c4ccccc4)CC3)cc2N1` [Example 10, 6-[4-(benzenesulfonyl)piperidine-1-carbonyl]-4H-1,4-benzoxazin-3-one] was 4220 nM; that for `O=C1COc2ccc(C(=O)N3CCC(N4C[C@H](c5ccccc5)OC4=O)CC3)cc2N1` [Example 11, 6-[4-[(5S)-2-oxo-5-phenyl-1,3-oxazolidin-3-yl]piperidine-1-carbonyl]-4H-1,4-benzoxazin-3-one] was 1260 nM; that for `O=C1COc2ccc(C(=O)N3CCC(Cc4ccc(Cl)cc4)CC3)cc2N1` [Example 12, 6-[4-[(4-chlorophenyl)methyl]piperidine-1-carbonyl]-4H-1,4-benzoxazin-3-one] was 48 nM. As for `O=C1COc2ccc(C(=O)N3CCC(C(=O)c4ccccc4)CC3)cc2N1` [Example 13, 6-(4-benzoylpiperidine-1-carbonyl)-4H-1,4-benzoxazin-3-one], the IC50 turned out to be 320 nM. Next, `O=C1COc2ccc(C(=O)N3CCC(Oc4ccccc4)CC3)cc2N1` [Example 14, 6-(4-phenoxypiperidine-1-carbonyl)-4H-1,4-benzoxazin-3-one]: 990 nM; `O=C1COc2ccc(C(=O)N3CCC(Oc4ccc(C(F)(F)F)cc4)CC3)cc2N1` [Example 15, 6-[4-[4-(trifluoromethyl)phenoxy]piperidine-1-carbonyl]-4H-1,4-benzoxazin-3-one]: 76 nM. Next, `O=C1COc2ccc(C(=O)N3CCC(Cc4cccc(F)c4F)CC3)cc2N1` [Example 16, 6-[4-[(2,3-difluorophenyl)methyl]piperidine-1-carbonyl]-4H-1,4-benzoxazin-3-one]: 66 nM; `O=C1COc2ccc(C(=O)N3CCC(Cc4cccc(C(F)(F)F)c4)CC3)cc2N1` [Example 17, 6-[4-[[3-(trifluoromethyl)phenyl]methyl]piperidine-1-carbonyl]-4H-1,4-benzoxazin-3-one]: 39.5 nM.

The term IC50 denotes the concentration that inhibits the measured activity by half.
